Test results published in PubChem BioAssay (NCI).
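Results reflect a 48-hour exposure of cells in 96-well plates to compound at five concentrations. TGI: total growth inhibition.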

Key:
Test in all cases: NCI-60 cell line screen, 48 h
A498 renal = system: A498 renal
A549 NSCLC = system: A549 NSCLC
ACHN renal = system: ACHN renal
CAKI-1 renal = system: CAKI-1 renal
CCRF-CEM leukemia = system: CCRF-CEM leukemia
COLO 205 colon = system: COLO 205 colon
DMS 114 small cell lung = system: DMS 114 small cell lung
DMS 273 small cell lung = system: DMS 273 small cell lung
EKVX NSCLC = system: EKVX NSCLC
HCC-2998 colon = system: HCC-2998 colon
HCT-116 colon = system: HCT-116 colon
HCT-15 colon = system: HCT-15 colon
HL-60(TB) leukemia = system: HL-60(TB) leukemia
HOP-62 NSCLC = system: HOP-62 NSCLC
HOP-92 NSCLC = system: HOP-92 NSCLC
HT29 colon = system: HT29 colon
IGROV1 ovarian = system: IGROV1 ovarian
K-562 leukemia = system: K-562 leukemia
KM12 colon = system: KM12 colon
KM20L2 colon = system: KM20L2 colon
LOX IMVI melanoma = system: LOX IMVI melanoma
LXFL 529 NSCLC = system: LXFL 529 NSCLC
M14 melanoma = system: M14 melanoma
M19-MEL melanoma = system: M19-MEL melanoma
MOLT-4 leukemia = system: MOLT-4 leukemia
NCI-H226 lung = system: NCI-H226 lung
NCI-H23 lung = system: NCI-H23 lung
NCI-H460 lung = system: NCI-H460 lung
NCI-H522 lung = system: NCI-H522 lung
OVCAR-4 ovarian = system: OVCAR-4 ovarian
OVCAR-5 ovarian = system: OVCAR-5 ovarian
OVCAR-8 ovarian = system: OVCAR-8 ovarian
RPMI-8226 leukemia = system: RPMI-8226 leukemia
RXF 393 renal = system: RXF 393 renal
SF-268 CNS = system: SF-268 CNS
SF-295 CNS = system: SF-295 CNS
SF-539 CNS = system: SF-539 CNS
SK-MEL-2 melanoma = system: SK-MEL-2 melanoma
SK-MEL-28 melanoma = system: SK-MEL-28 melanoma
SK-MEL-5 melanoma = system: SK-MEL-5 melanoma
SK-OV-3 ovarian = system: SK-OV-3 ovarian
SN12C renal = system: SN12C renal
SNB-19 CNS = system: SNB-19 CNS
SNB-75 CNS = system: SNB-75 CNS
SR leukemia = system: SR leukemia
SW-620 colon = system: SW-620 colon
TK-10 renal = system: TK-10 renal
U251 CNS = system: U251 CNS
UACC-257 melanoma = system: UACC-257 melanoma
UACC-62 melanoma = system: UACC-62 melanoma
UO-31 renal = system: UO-31 renal
XF 498 CNS = system: XF 498 CNS
786-0 renal = system: 786-0 renal
BT-549 breast = system: BT-549 breast
DU-145 prostate = system: DU-145 prostate
HS 578T breast = system: HS 578T breast
MALME-3M melanoma = system: MALME-3M melanoma
MCF7 breast = system: MCF7 breast
MDA-MB-231 breast = system: MDA-MB-231 breast
MDA-MB-435 = system: MDA-MB-435
MDA-N = system: MDA-N
NCI/ADR-RES ovarian = system: NCI/ADR-RES ovarian
OVCAR-3 ovarian = system: OVCAR-3 ovarian
PC-3 prostate = system: PC-3 prostate
T-47D breast = system: T-47D breast

Measured: TGI

COC(=O)C(Cc1ccc(N(C)C)cc1)(NC(=O)c1ccccc1)P(=O)(OC)OC (stereo not drawn)
not listed: 786-0 renal | BT-549 breast | DU-145 prostate | HS 578T breast | MALME-3M melanoma | MCF7 breast | MDA-MB-231 breast | MDA-MB-435 | MDA-N | NCI/ADR-RES ovarian | OVCAR-3 ovarian | PC-3 prostate | T-47D breast
> 100 µM: all other assays above

O=c1[nH]nc(Cc2ccccc2)n1/N=C/c1cccnc1
not listed: DMS 114 small cell lung | DMS 273 small cell lung | KM20L2 colon | LXFL 529 NSCLC | M19-MEL melanoma | SK-MEL-2 melanoma | SK-OV-3 ovarian | UACC-62 melanoma | XF 498 CNS
> 100 µM: all other assays above
